Where a SMILES comes first, the peptide text is derived from it.
Tests used:
P815 target cells = test: Cytotoxic T lymphocytes (CTL) assay, 51Cr release, after 5 days mixed culture with drug; format: cell-based, C57BL/6 mice
Text: 1. Cytotoxic T Lymphocytes (CTL) Mixed Lymphocyte Reaction (MLR) and Mitogenic Response Assays
The protocols used are described in Hudson L., Haay F., Pratical immunology, 3rd edition, Blackwell, Scientific publications, Oxford 1989, p. 158-162, and p.447.
Lymphocytes were isolated from C57BL/6 mice and DBA/2 mice in accordance to techniques well known in the art. Cell concentration was adjusted to 10×10^6 cell/ml for each assay. The cells isolated from DBA/2 mice were irradiated with 3000 Rads.
In a 6 well plate, each well was set up with:
The cells were incubated for five days at 37° C. in 5% CO2, after which CTL and MLR assays were performed.
a) Cytotoxic T Lymphocytes (CTL)
P815 target cells were labelled with Cr^51 (0.1 mCi). After labelling, the cells were washed three times and resuspended to a concentration of 5×10^4 cells/ml in media. p T cells were then counted and diluted to obtain a concentration of 2.5×10^6 cells/ml, and then further diluted to obtain the following effector:target ratios:
100 μl of target cells+100 μl of CTLs were incubated for 4 hours. In parallel wells, 100 μl of target cells+100 μl of media were incubated for spntaneous release. After incubation, cells were centrifuged and 100 μl of supernatant was then counted using a gamma counter.
Results are expressed as % specific ^51 Cr release= [formula] where ER=experimental release, SR=spontaneous releaase, and
0 represents less than 20%, + represents 20-40%, ++ represents 40-60%, +++ represent 60-80%, and ++++ represents 80% and over.

[1] = test system: blood cell subsets (cell surface antigens); test: In vivo/ex vivo immunophenotyping in the blood, mice treated 4 consecutive days, blood taken on day 5; parameters: species or system C57BL/6 mice
Procedure: C57BL.backslash.6 mice are treated with 0, 50, 100, 200, and 300 mg/kg of drug (in saline) for 4 consecutive days. Blood is taken by cardiac puncture on day 5, and the lymphocytes are isolated from spleen in the following manner:
1. Immunophenotyping (blood and spleen)
Cell immunophenotyping is performed on blood and spleen. The following cell surface antigens are analyzed:
CD4 (T helper/inducer, binds class II-restricted T cells);
CD8 (cytotoxic T cells, CTL adhesion);
MAC-1 (monocyte/macrophage);
NK (natural killer cells);
CD45 (all leukocytes, protein tyrosine phosphatase).

NCCCC[C@H](N)C(=O)N[C@@H](CC(N)=O)C(=O)N1CCC[C@H]1C(=O)N[C@@H](Cc1ccc(O)cc1)C(=O)O [PEPTIDE #1, H-Lys-Asn-Pro-Tyr-OH] (H-KNPY-OH)
CTL, % augmentation compared to IL-2 (IL-2 is 100%) (P815 target cells; 10^-7 M): ++ (++ represents 40-60%) | stimulation of CTL in vitro (in words) (P815 target cells; summary of Table 1): stimulates CTL's | B cell subset, relative percentage ([1]; 50 mg/kg): 23.57 | CD4+ CD8+ cell subset, relative percentage ([1]; 50 mg/kg): 3.65 | CD4+ CD8- cell subset, relative percentage ([1]; 50 mg/kg): 27.15 | CD4+ CD11+ cell subset, relative percentage ([1]; 50 mg/kg): 0.53 | CD4+ CD11- cell subset, relative percentage ([1]; 50 mg/kg): 34.10 | CD4+ CD45+ cell subset, relative percentage ([1]; 50 mg/kg): 26.95 | CD4+ CD45- cell subset, relative percentage ([1]; 50 mg/kg): 3.80 | CD4- CD8+ cell subset, relative percentage ([1]; 50 mg/kg): 11.20 | CD4- CD8- cell subset, relative percentage ([1]; 50 mg/kg): 58.05 | CD4- CD11+ cell subset, relative percentage ([1]; 50 mg/kg): 7.67 | CD4- CD11- cell subset, relative percentage ([1]; 50 mg/kg): 57/73 | CD4- CD45+ cell subset, relative percentage ([1]; 50 mg/kg): 65.30 | CD4- CD45- cell subset, relative percentage ([1]; 50 mg/kg): 3.90 | CD8+ CD45+ cell subset, relative percentage ([1]; 50 mg/kg): 13.70 | CD8+ CD45- cell subset, relative percentage ([1]; 50 mg/kg): 0.55 | CD8- CD45+ cell subset, relative percentage ([1]; 50 mg/kg): 76.15 | CD8- CD45- cell subset, relative percentage ([1]; 50 mg/kg): 9.60 | NK+ CD3+ cell subset, relative percentage ([1]; 50 mg/kg): 7.83 | NK+ CD3- cell subset, relative percentage ([1]; 50 mg/kg): 10.47 | NK- CD3+ cell subset, relative percentage ([1]; 50 mg/kg): 41.23 | NK- CD3- cell subset, relative percentage ([1]; 50 mg/kg): 40.53 | Non B cell subset, relative percentage ([1]; 50 mg/kg): 76.40 | B cell subset, relative percentage ([1]; 100 mg/kg): 19.23 | CD4+ CD8+ cell subset, relative percentage ([1]; 100 mg/kg): 27.20 | CD4+ CD8- cell subset, relative percentage ([1]; 100 mg/kg): 28.55 | CD4+ CD11+ cell subset, relative percentage ([1]; 100 mg/kg): 0.23 | CD4+ CD11- cell subset, relative percentage ([1]; 100 mg/kg): 41.67 | CD4+ CD45+ cell subset, relative percentage ([1]; 100 mg/kg): 46.75 | CD4+ CD45- cell subset, relative percentage ([1]; 100 mg/kg): 8.90 | CD4- CD8+ cell subset, relative percentage ([1]; 100 mg/kg): 11.50 | CD4- CD8- cell subset, relative percentage ([1]; 100 mg/kg): 32.85 | CD4- CD11+ cell subset, relative percentage ([1]; 100 mg/kg): 3.00 | CD4- CD11- cell subset, relative percentage ([1]; 100 mg/kg): 55.13 | CD4- CD45+ cell subset, relative percentage ([1]; 100 mg/kg): 37.30 | CD4- CD45- cell subset, relative percentage ([1]; 100 mg/kg): 7.00 | CD8+ CD45+ cell subset, relative percentage ([1]; 100 mg/kg): 31.95 | CD8+ CD45- cell subset, relative percentage ([1]; 100 mg/kg): 6.20 | CD8- CD45+ cell subset, relative percentage ([1]; 100 mg/kg): 47.55 | CD8- CD45- cell subset, relative percentage ([1]; 100 mg/kg): 14.35 | NK+ CD3+ cell subset, relative percentage ([1]; 100 mg/kg): 2.80 | NK+ CD3- cell subset, relative percentage ([1]; 100 mg/kg): 6.50 | NK- CD3+ cell subset, relative percentage ([1]; 100 mg/kg): 37.57 | NK- CD3- cell subset, relative percentage ([1]; 100 mg/kg): 53.13 | Non B cell subset, relative percentage ([1]; 100 mg/kg): 80.77 | B cell subset, relative percentage ([1]; 200 mg/kg): 20.10 | CD4+ CD8+ cell subset, relative percentage ([1]; 200 mg/kg): 16.11 | CD4+ CD8- cell subset, relative percentage ([1]; 200 mg/kg): 24.11 | CD4+ CD11+ cell subset, relative percentage ([1]; 200 mg/kg): 0.50 | CD4+ CD11- cell subset, relative percentage ([1]; 200 mg/kg): 39.73 | CD4+ CD45+ cell subset, relative percentage ([1]; 200 mg/kg): 33.01 | CD4+ CD45- cell subset, relative percentage ([1]; 200 mg/kg): 6.22 | CD4- CD8+ cell subset, relative percentage ([1]; 200 mg/kg): 8.57 | CD4- CD8- cell subset, relative percentage ([1]; 200 mg/kg): 37.41 | CD4- CD11+ cell subset, relative percentage ([1]; 200 mg/kg): 5.50 | CD4- CD11- cell subset, relative percentage ([1]; 200 mg/kg): 54.30 | CD4- CD45+ cell subset, relative percentage ([1]; 200 mg/kg): 40.63 | CD4- CD45- cell subset, relative percentage ([1]; 200 mg/kg): 6.74 | CD8+ CD45+ cell subset, relative percentage ([1]; 200 mg/kg): 20.68 | CD8+ CD45- cell subset, relative percentage ([1]; 200 mg/kg): 4.13 | CD8- CD45+ cell subset, relative percentage ([1]; 200 mg/kg): 49.80 | CD8- CD45- cell subset, relative percentage ([1]; 200 mg/kg): 10.39 | NK+ CD3+ cell subset, relative percentage ([1]; 200 mg/kg): 4.57 | NK+ CD3- cell subset, relative percentage ([1]; 200 mg/kg): 8.70 | NK- CD3+ cell subset, relative percentage ([1]; 200 mg/kg): 31.73 | NK- CD3- cell subset, relative percentage ([1]; 200 mg/kg): 55.07 | Non B cell subset, relative percentage ([1]; 200 mg/kg): 79.90 | B cell subset, relative percentage ([1]; 300 mg/kg): 33.67 | CD4+ CD8+ cell subset, relative percentage ([1]; 300 mg/kg): 2.37 | CD4+ CD8- cell subset, relative percentage ([1]; 300 mg/kg): 31.07 | CD4+ CD11+ cell subset, relative percentage ([1]; 300 mg/kg): 0.37 | CD4+ CD11- cell subset, relative percentage ([1]; 300 mg/kg): 29.53 | CD4+ CD45+ cell subset, relative percentage ([1]; 300 mg/kg): 30.67 | CD4+ CD45- cell subset, relative percentage ([1]; 300 mg/kg): 2.77 | CD4- CD8+ cell subset, relative percentage ([1]; 300 mg/kg): 16.67 | CD4- CD8- cell subset, relative percentage ([1]; 300 mg/kg): 49.90 | CD4- CD11+ cell subset, relative percentage ([1]; 300 mg/kg): 5.07 | CD4- CD11- cell subset, relative percentage ([1]; 300 mg/kg): 65.03 | CD4- CD45+ cell subset, relative percentage ([1]; 300 mg/kg): 62.10 | CD4- CD45- cell subset, relative percentage ([1]; 300 mg/kg): 4.47 | CD8+ CD45+ cell subset, relative percentage ([1]; 300 mg/kg): 18.10 | CD8- CD45+ cell subset, relative percentage ([1]; 300 mg/kg): 73.03 | CD8- CD45- cell subset, relative percentage ([1]; 300 mg/kg): 8.83 | NK+ CD3+ cell subset, relative percentage ([1]; 300 mg/kg): 9.97 | NK+ CD3- cell subset, relative percentage ([1]; 300 mg/kg): 11.87 | NK- CD3+ cell subset, relative percentage ([1]; 300 mg/kg): 42.43 | NK- CD3- cell subset, relative percentage ([1]; 300 mg/kg): 35.77 | Non B cell subset, relative percentage ([1]; 300 mg/kg): 66.30 | change of the relative percentage of B cell (in words) ([1]; 300 mg/kg): significant increase
